{"source": "ChEMBL document CHEMBL5370588", "about": "“Unraveling the unexpected aggregation behavior of Pyrazole-Based compounds Targeting Mycobacterium tuberculosis UDP-Galactopyranose mutase” (Bioorg Med Chem, 2023)", "key": {"[1]": {"target": "T1, UDP-galactopyranose mutase (Mycobacterium tuberculosis, UniProt P9WIQ1)", "T1 sequence (P9WIQ1 whole entry)": "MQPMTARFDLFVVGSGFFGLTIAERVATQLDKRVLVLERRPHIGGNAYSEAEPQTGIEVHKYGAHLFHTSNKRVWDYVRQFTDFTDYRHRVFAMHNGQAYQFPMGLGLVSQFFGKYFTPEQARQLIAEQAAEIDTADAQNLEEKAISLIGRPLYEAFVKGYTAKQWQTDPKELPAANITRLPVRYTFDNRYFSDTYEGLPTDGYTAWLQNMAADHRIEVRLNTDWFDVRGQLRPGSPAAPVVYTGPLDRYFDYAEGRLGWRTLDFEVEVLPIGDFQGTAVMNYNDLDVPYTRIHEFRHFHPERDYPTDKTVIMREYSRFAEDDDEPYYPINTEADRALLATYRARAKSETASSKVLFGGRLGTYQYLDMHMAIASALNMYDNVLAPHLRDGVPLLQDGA", "assay": "Inhibition of His6-tagged Mycobacterium tuberculosis reduced UDP-galactopyranose mutase expressed in Escherichia coli BL21 assessed as reduction in UDPGalf production using UDPGalp as substrate by HPLC analysis"}, "[2]": {"target": "T1, UDP-galactopyranose mutase", "assay": "Inhibition of His6-tagged Mycobacterium tuberculosis reduced UDP-galactopyranose mutase expressed in Escherichia coli BL21 assessed as reduction in UDPGalf production using UDPGalp as substrate in presence of TritonX100 by HPLC analysis"}, "[3]": {"target": "UDP-galactopyranose mutase (Mycobacterium tuberculosis) (UniProt P9WIQ1)", "sequence (P9WIQ1 whole entry, looked up)": "as the sequence (P9WIQ1 whole entry) above", "assay": "Binding affinity to His6-tagged Mycobacterium tuberculosis UDP-galactopyranose mutase expressed in Escherichia coli BL21 assessed as increase in melting temperature using UDP-Galp as substrate at < 100 uM in presence of Sypro Orange by thermal shift assay"}, "[4]": {"assay": "Aggregation property of compound in PBS at pH 7 at 80 uM by DLS assay", "assay_type": "physicochemical", "conditions": "buffer, pH 7, 80 µM"}, "[5]": {"target": "UDP-galactopyranose mutase (Mycobacterium tuberculosis) (UniProt P9WIQ1)", "assay": "Binding affinity to His6-tagged Mycobacterium tuberculosis UDP-galactopyranose mutase expressed in Escherichia coli BL21 assessed as change melting temperature up to 600 uM in presence of Sypro Orange by thermal shift assay"}, "[6]": {"assay": "Aggregation property of compound in PBS at pH 7 assessed as critical aggregation concentration by DLS assay", "assay_type": "physicochemical", "conditions": "buffer"}, "[7]": {"target": "UDP-galactopyranose mutase (Mycobacterium tuberculosis) (UniProt P9WIQ1)", "assay": "Binding affinity to His6-tagged Mycobacterium tuberculosis UDP-galactopyranose mutase expressed in Escherichia coli BL21 assessed as increase in melting temperature using UDP-Galp as substrate at 600 to 800 uM in presence of Sypro Orange by thermal shift assay", "conditions": "dose 600-800 µM"}, "[8]": {"target": "T1, UDP-galactopyranose mutase", "assay": "Inhibition of Mycobacterium tuberculosis UDP-galactopyranose mutase expressed in Escherichia coli BL21 using […] as substrate by cornish-bowden plot analysis"}, "[9]": {"target": "UDP-galactopyranose mutase (Mycobacterium tuberculosis) (UniProt P9WIQ1)", "assay": "Binding affinity to His6-tagged Mycobacterium tuberculosis reduced UDP-galactopyranose mutase expressed in Escherichia coli BL21 assessed as increase in corrected fluorescence intensity at 100 to 1000 uM in presence of ANS by fluorescence-based binding assay", "conditions": "dose 100-1000 µM"}, "[10]": {"target": "UDP-galactopyranose mutase (Mycobacterium tuberculosis) (UniProt P9WIQ1)", "assay": "Binding affinity to His6-tagged Mycobacterium tuberculosis UDP-galactopyranose mutase expressed in Escherichia coli BL21 assessed as decrease in melting temperature at 800 to 1000 uM in presence of Sypro Orange by thermal shift assay", "conditions": "dose 800-1000 µM"}, "[11]": {"target": "UDP-galactopyranose mutase (Mycobacterium tuberculosis) (UniProt P9WIQ1)", "assay": "Binding affinity to His6-tagged Mycobacterium tuberculosis reduced UDP-galactopyranose mutase expressed in Escherichia coli BL21 assessed as increase in corrected fluorescence intensity using UDP-Galp as substrate at 100 to 1000 uM in presence of ANS by fluorescence-based binding assay", "conditions": "dose 100-1000 µM"}, "[12]": {"target": "UDP-galactopyranose mutase (Mycobacterium tuberculosis) (UniProt P9WIQ1)", "assay": "Binding affinity to His6-tagged Mycobacterium tuberculosis UDP-galactopyranose mutase expressed in Escherichia coli BL21 assessed as change melting temperature at 20 uM in presence of Sypro Orange by thermal shift assay"}, "[13]": {"target": "UDP-galactopyranose mutase (Mycobacterium tuberculosis) (UniProt P9WIQ1)", "assay": "Binding affinity to His6-tagged Mycobacterium tuberculosis UDP-galactopyranose mutase expressed in Escherichia coli BL21 assessed as decrease in melting temperature using UDP-Galp as substrate at 100 to 400 uM in presence of Sypro Orange by thermal shift assay", "conditions": "dose 100-400 µM"}, "[14]": {"target": "T1, UDP-galactopyranose mutase", "assay": "Inhibition of Mycobacterium tuberculosis UDP-galactopyranose mutase expressed in Escherichia coli BL21 using […] as substrate by Dixon plot analysis"}, "[15]": {"target": "T1, UDP-galactopyranose mutase", "assay": "Inhibition of His6-tagged Mycobacterium tuberculosis UDP-galactopyranose mutase expressed in Escherichia coli BL21 using […] as substrate by Dixon plot analysis"}}, "note": "The source made the active and inactive calls. The calls are words filed in the database; no cut-off is given here.", "data": [{"smiles": "OC(c1ccc(Cl)cc1)c1cn(-c2ccc(Cl)cc2)nn1", "note": "(stereo not given)", "values": [{"measurement": "IC50", "setting": "[1]", "value": 150, "unit": "µM"}, {"measurement": "IC50", "setting": "[2]", "value": 2710, "unit": "µM"}]}, {"smiles": "Cc1nn(-c2ccc(Cl)cc2)c(O)c1S(=O)(=O)c1ccc(Cl)cc1", "values": [{"measurement": "IC50", "setting": "[1]", "value": 225, "unit": "µM"}, {"measurement": "IC50", "setting": "[2]", "value": 4340, "unit": "µM"}]}, {"smiles": "O=C(CCc1cn(-c2ccc(Cl)cc2)nn1)Oc1ccc(Cl)cc1", "values": [{"measurement": "IC50", "setting": "[1]", "value": 530, "unit": "µM"}, {"measurement": "IC50", "setting": "[2]", "value": 1260, "unit": "µM"}]}, {"smiles": "Cc1nn(-c2ccc(Cl)cc2)c(O)c1C(=O)c1ccccc1", "values": [{"measurement": "IC50", "setting": "[1]", "value": 610, "unit": "µM"}, {"measurement": "IC50", "setting": "[2]", "value": 1510, "unit": "µM"}]}, {"smiles": "Cc1[nH]n(-c2ccc(Cl)cc2)c(=O)c1C(=O)c1ccc(Cl)cc1", "values": [{"measurement": "IC50", "setting": "[1]", "value": 880, "unit": "µM"}, {"measurement": "Activity", "setting": "[3]", "value": "Active"}, {"measurement": "Activity", "setting": "[4]", "value": "Active"}, {"measurement": "Activity", "setting": "[5]", "value": "inactive"}, {"measurement": "IC50", "setting": "[2]", "value": 590, "unit": "µM"}, {"measurement": "CAC", "setting": "[6]", "value": "> 50", "unit": "µM"}, {"measurement": "Activity", "setting": "[7]", "value": "Active"}, {"measurement": "Ki", "setting": "[8]", "value": "~400", "unit": "µM"}, {"measurement": "Activity", "setting": "[9]", "value": "Active"}, {"measurement": "Activity", "setting": "[10]", "value": "Active"}, {"measurement": "Activity", "setting": "[11]", "value": "Active"}, {"measurement": "ΔTm", "setting": "[12]", "value": 5, "unit": "°C"}, {"measurement": "Activity", "setting": "[13]", "value": "Active"}, {"measurement": "Ki", "setting": "[14]", "value": "~135", "unit": "µM"}]}, {"smiles": "Cc1cc(OC(=O)c2ccc(S(N)(=O)=O)cc2)n(-c2ccc(Cl)cc2)n1", "values": [{"measurement": "IC50", "setting": "[1]", "value": 500, "unit": "µM"}, {"measurement": "IC50", "setting": "[2]", "value": 1130, "unit": "µM"}, {"measurement": "Ki", "setting": "[15]", "value": "~51", "unit": "µM"}]}]}
